Experimental data from PubChem BioAssay AID743394 (Broad Institute, 2014).
Activity calls are given as the source filed them.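 The calls were made as follows: active = 40% activation versus positive control reached by fitted dose-response curve at or below highest valid tested dose; inconclusive = poor fit quality, or flat fit with activation between 30% and 70%; inactive = the rest.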

Assay: Xi-linked GFP reactivating small molecules – imaging, 68-5-11 mouse fibroblasts, cherry-pick, dose response (AID 743394);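 also: sensitizer 5-aza-dC present in the wells at 0.5 mM final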
Conditions: 68-5-11 mouse fibroblast XiGFP reporter, % GFP-positive imaging, 3 d; at 19.5 µM (top of the series)

SMILES | activation
COP(=S)(OC)Oc1ccc(Sc2ccc(OP(=S)(OC)OC)cc2)cc1 | 0.028% (inactive)

Same assay, conditions: 68-5-11 mouse fibroblast XiGFP reporter, % GFP-positive imaging, 3 d; at 19.5 µM (top of the series); cells co-treated with 5-aza-dC sensitizer; scaled: neutral wells 0, ellipticine wells 100

SMILES | activation
C/C(CC(=O)Nc1ccc(C)c(Cl)c1)=N\NC(=O)Cc1ccccc1 | -0.06% (inactive)
[N-]=[N+]=CC(=O)C(O)(c1ccccc1)C(Cl)c1ccccc1 (stereo unspecified) | 0.034% (inactive)
COC(=O)c1cc(C(=O)N2CCN(c3ccccc3OC)CC2)cc([N+](=O)[O-])c1 | 0.681% (inactive)
CN(C1CCCCC1)S(=O)(=O)c1ccc(C(=O)N2CCN(c3nc4ccccc4s3)CC2)cc1 | 0.125% (inactive)
O=C(NCc1ccccc1)c1ccccc1Br | 0.035% (inactive)
O=C(c1nc(SCc2ccc([N+](=O)[O-])cc2)n2ccccc12)C(F)(F)F | 0.007% (inactive)
Cc1ccc(C(=O)Cn2cncn2)cc1 | -0.053% (inactive)
CC1CCCC(NC(=O)CSc2cccc[n+]2[O-])C1C (stereo unspecified) | 0.125% (inactive)
CC1CN(C(=O)/C=C/c2ccc([N+](=O)[O-])s2)CC(C)O1 (stereo unspecified) | -0.075% (inactive)
CC(=O)c1ccc(NS(=O)(=O)c2ccc(N/C=C/C(=O)c3ccc(F)cc3)cc2)cc1 | 0.351% (inactive)
COc1ccc(-c2nnc(NC(=O)c3ccc(F)cc3)o2)cc1 | -0.035% (inactive)
S=C(SSC(=S)N1CCOCC1)N1CCOCC1 | -0.127% (inactive)
NC(=NC(=O)c1cccc(C(F)(F)F)c1)c1ccc(C(F)(F)F)cn1 | 0.408% (inactive)
CC(C)CC(=O)Nc1c2c(nn1-c1ccc(F)cc1)CSC2 | 0.542% (inactive)
COc1ccc(N=Nc2ccc(O)c(P(=O)(c3ccccc3)c3ccccc3)c2)cc1 | 0.015% (inactive)
Nc1nnc(SCC(=O)c2ccc([N+](=O)[O-])cc2)s1 | 0.961% (inactive)
O=C(O)c1cccnc1C(=O)N1CCc2c([nH]c3ccccc23)C1C(F)(F)F (stereo unspecified) | 0.006% (inactive)
COC(=O)c1sc(-c2ccc(C(C)(C)C)cc2)cc1NC(=O)c1ccccc1C(=O)O | -0.053% (inactive)
ClC1CCCCC1n1nnc2ccccc21 (stereo unspecified) | 0.006% (inactive)
Cc1ccc(Nc2nc(N)nc(COC(=O)C3=COCCO3)n2)cc1 | 0.004% (inactive)
C[C@H]1CN([C@@H](C)CO)S(=O)(=O)c2ccc(Br)cc2O[C@H]1CN(C)C(=O)c1cccnc1 | -0.033% (inactive)
COc1ccc(C(=O)Nc2c(F)c(F)c(F)c(F)c2F)cc1OC | -0.047% (inactive)

SMILES | activation
COc1cccc(CNC(=O)c2cc(S(=O)(=O)N3CCCC3)cn2C)c1 | 0.095% (inactive)
C=CCN(CC(O)c1cccc([N+](=O)[O-])c1)C(C)CCc1ccccc1 (stereo unspecified) | -0.039% (inactive)
CN(CC(=O)Nc1ccc(Cl)c(Cl)c1)CC(=O)Nc1ccc2c(c1)OCO2 | -0.047% (inactive)
Cc1ccc(-c2[nH]c(=S)[nH]c(=O)c2C#N)cc1 | -0.003% (inactive)
COc1ccc(Cl)cc1C(=O)Nc1ccccc1N1CCCCC1 | 1.48% (inactive)
C[C@@H]1CN([C@@H](C)CO)S(=O)(=O)c2ccc(C#CC3CC3)cc2O[C@H]1CN(C)Cc1ccc(F)cc1 | 0.063% (inactive)
O=C(CNC(=O)c1ccccc1F)OCc1nc2ccccc2s1 | -0.127% (inactive)
COc1ccc(C2C(=O)c3ccccc3C2=Nc2ccc(Br)cc2)cc1 (stereo unspecified) | -0.066% (inactive)
COc1cc(/C=C/c2ccc3cccc(O)c3n2)cc(OC)c1OC | -0.032% (inactive)
CCC(=O)N1CC(=O)N2[C@@H](CO)[C@@H](c3ccc(-c4ccccc4F)cc3)[C@@H]2C1 | 0% (inactive)
CCCOc1ccc(C(=O)Nc2ccc(CN3CCOCC3)cc2)cc1 | -0.053% (inactive)
COc1cc(C(=O)NC(=S)Nc2cccc3nc(C)ccc23)cc(OC)c1OC | 1% (inactive)
Cc1ccc(S(=O)(=O)N2CCN(C(=O)COC(=O)c3ccccc3OC(F)F)CC2)c(C)c1 | -0.006% (inactive)
CC(=O)N[C@@H](CC(=O)O)C(=O)O | -0.053% (inactive)
CCOC(=O)c1ccc(NC(=O)c2ccnn2C)cc1 | -0.044% (inactive)
CN1c2ccc(-c3ccc(C#N)cc3)cc2[C@@H]2[C@@H](CCN2C(=O)NC2CCCCC2)[C@H]1CO | 0.002% (inactive)
CCc1ccc(N2CC(C(=O)Nc3cc(C)on3)CC2=O)cc1 (stereo unspecified) | -0.034% (inactive)
CC[N+]1=C(C)C(C)(C)c2cc(C)ccc21 | -0.032% (inactive)
N/C(=N\c1nc(CSc2nc3ccccc3s2)cc(=O)[nH]1)Nc1ccc(F)cc1 | 8.8% (inactive)
CCCC(=O)OCCNc1cc(Sc2nccn2C)c2nonc2c1[N+](=O)[O-] | -0.034% (inactive)
CCCCCCCCN1C(=O)[C@H](CC(=O)N2CCSCC2)C[C@@]2(C(=O)OCC)CCCC=C12 | 0.117% (inactive)
O=C1C2C3C=CC(CNS(=O)(=O)c4ccccc4[N+](=O)[O-])(O3)C2C(=O)N1c1ccccc1 (stereo unspecified) | 0.059% (inactive)

SMILES | activation
Cc1n[nH]c(=S)n1/N=C/c1ccc(-c2ccc(Cl)cc2)o1 | 1.87% (inactive)
Cn1c(NC(=O)c2ccc(F)cc2)c(-c2ccccn2)c(=O)c2ccccc21 | 0.155% (inactive)
COCCNC(=S)N(Cc1cccnc1)Cc1ccc(OC)c(OC)c1 | 0.071% (inactive)
NNC(=O)c1sc(-c2ccc(Cl)cc2)cc1N | 2.31% (inactive)
CCOC(=O)c1sc(-c2ccc(F)cc2)cc1NC(=O)Nc1ccccc1OC | 0.169% (inactive)
CCC1Oc2ccc(C)cc2N(CC(=O)N2CCCC2)C1=O (stereo unspecified) | 0.113% (inactive)
CCN(CC)S(=O)(=O)c1ccc(Cl)c(NC(=O)COC(=O)c2c(C)noc2C)c1 | 0.03% (inactive)
NS(=O)(=O)c1cccc(-n2cnnn2)c1 | 0.065% (inactive)
COc1ccc(COc2ccccc2C(=O)NCc2ccccc2)cc1F | -0.07% (inactive)
O=C(N/N=C/c1ccc([N+](=O)[O-])o1)c1cc2ccccc2o1 | 4.43% (inactive)
COc1ccc(-n2ncc(Cl)c(Cl)c2=O)cc1 | -0.032% (inactive)
CCOC(=O)c1ccccc1NC(=O)COC(=O)C1CCN(S(=O)(=O)c2ccccc2C(=O)OC)CC1 | 1.06% (inactive)
CC1CN(Cc2c(O)ccc3c2oc(=O)c2ccccc23)CC(C)O1 (stereo unspecified) | -0.012% (inactive)
COc1ccc(OC)c(/C=C/c2ccc3cccc(O)c3n2)c1 | -0.024% (inactive)
C[C@@H]1CCCCO[C@H](CN(C)C(=O)Nc2ccc(C(F)(F)F)cc2)[C@H](C)CN([C@H](C)CO)C(=O)c2cc(NC(=O)CCC(F)(F)F)ccc2O1 | 0.24% (inactive)
CC=Cc1ccc2n(c1=O)C[C@@H]1[C@@H](CO)[C@H](C(=O)NCCCN(C)C)[C@H]2N1C(=O)c1ccccc1F (mixture of isomers) | -0.01% (inactive)
Cc1ccccc1C1c2[nH]c3ccccc3c2CCN1Cc1cccn1-c1ncccn1 (stereo unspecified) | 0.097% (inactive)
CCOC(=O)C1CCN(C(=O)c2ccc(NS(=O)(=O)c3ccc(F)cc3C)cc2)CC1 | 0.035% (inactive)
Cc1cccc(-c2ccc([C@@H]3[C@@H](CO)N4CCCCN(S(=O)(=O)c5ccccc5F)C[C@H]34)cc2)c1 | 0% (inactive)
COc1ccc(-n2nc(C#N)c(Cl)cc2=O)cc1 | 0.745% (inactive)

Same assay, conditions: 68-5-11 mouse fibroblast XiGFP reporter, % GFP-positive imaging, 3 d; at 21 µM (top of the series); cells co-treated with 5-aza-dC sensitizer; scaled: neutral wells 0, ellipticine wells 100

SMILES | activation
CO[C@H](CN(C)C(=O)Nc1ccc(C(F)(F)F)cc1)[C@@H](C)CN(Cc1ccccc1Cl)[C@@H](C)CO | 0% (inactive)
